# Measurements from patent US12329158B2, “Large-scale methods of uniformly coating packaging surfaces with a volatile antimicrobial to preserve food freshness” (AGROFRESH INC., priority 2013, dated 2025).
# Read-outs that look alike come from different tables or passages of the source.
# Legend:
# Format in all cases: cell-based
# Epidermophyton floccus [1] = experiment: In vitro contact assay (Example 26); conditions: 5 days at 28 C, 100% control; for MIC: Epidermophyton, 120 h, read-out: MIC (mg/L) Epidermophyton floccus
# Procedure: (§1) Half-strength Potato Dextrose Agar (PDA) is amended with a mixture of one of the test compounds in acetone or methanol to a final concentration of 50, 10, 2, 0.4 or 0.08 mg/L. A 3-mL volume of the amended media is added to each well of the microtiter plate. […] The plates are sealed with a clear film and incubated inverted for 5 days at 28° C.
# [2] = tested on: Trichophyton mentagrophytes; experiment: In vitro contact assay (Example 26); conditions: 5 days at 28 C, 100% control; for MIC: Trichophyton mentagrophytes, 120 h, read-out: MIC (mg/L) Trichophyton mentagrophytes
# Procedure: as §1
# Trichophyton rubrum [3] = experiment: In vitro contact assay (Example 26); conditions: 5 days at 28 C, 100% control; for MIC: Trichophyton rubrum, 120 h, read-out: MIC (mg/L) Trichophyton rubrum
# Procedure: as §1
# Epidermophyton floccus [4] = experiment: In vitro volatile assay (Example 26); conditions: 5 days at 28 C, 100% control; for MIC: Epidermophyton, 120 h, read-out: MIC (mg/L) Epidermophyton floccus
# Procedure: (§2) Volatile assay: 6-well (16.5 mL volume per well) microtiter plates are used in an in vitro inhibition assay for Compounds A and 31, and compared to other registered fungicides (5-fluorocytosine, Amphotericin B, aspofungin diacetate, Fluconazole and Itraconazole). A 7.5-mL volume of half strength PDA is added to each well. After drying, a mycelial plug (5 mm diameter) is aseptically obtained from actively growing cultures of Epidermophyton floccus, Trichophyton rubrum, or Trichophyton mentagrophytes and placed at the center of the plate with the mycelial side in contact with the agar. A Whatman #1 filter disk (Cat. No. 1001-325) is placed, in duplicate, on the underside of a polyethylene PCR plate sealing film. […] The headspace around the inoculum is then sealed inside the well by the film with the adhering disk containing the fungicide and incubated inverted for 5 days at 28° C.
# [5] = tested on: Trichophyton mentagrophytes; experiment: In vitro volatile assay (Example 26); conditions: 5 days at 28 C, 100% control; for MIC: Trichophyton mentagrophytes, 120 h, read-out: MIC (mg/L) Trichophyton mentagrophytes
# Procedure: as §2
# Trichophyton rubrum [6] = experiment: In vitro volatile assay (Example 26); conditions: 5 days at 28 C, 100% control; for MIC: Trichophyton rubrum, 120 h, read-out: MIC (mg/L) Trichophyton rubrum
# Procedure: as §2
# Botrytis cinerea = experiment: Volatile MIC of Samples 1-4 (Example 19); conditions: 50 µl/disk; for MIC: Botrytis cinerea, read-out: MIC mg/l Botrytis cinerea
# Procedure: A 3-ml volume of full-strength Potato Dextrose Agar (PDA) is added to each well. […] Cat. No. 1001-0155) are placed on the underside of a polyethylene PCR plate sealing film. […] The acetone is permitted to evaporate for 5 minutes. The headspace around the Botrytis cinerea inoculum is then sealed inside the well by the film with the adhering disk containing the fungicide. Plates are inverted to prevent any possibility of the chemical from flaking from the disk and falling onto the inoculated agar.
# Penicillium expansum = experiment: Volatile MIC of Samples 1-4 (Example 19); conditions: 50 µl/disk
# Alternaria alternata = experiment: Volatile MIC of Samples 1-4 (Example 19); conditions: 50 µl/disk; for MIC: Alternaria alternata, read-out: MIC mg/l Alternaria alternata
# Monilinia fructicola = experiment: Volatile MIC of Samples 1-4 (Example 19); conditions: 50 µl/disk
# Glomerella cingulata = experiment: Volatile MIC of Samples 1-4 (Example 19); conditions: 50 µl/disk; first test (Table 15)
Compound,MIC (Epidermophyton floccus [1]) [mg/L],MIC [2] [mg/L],MIC (Trichophyton rubrum [3]) [mg/L],MIC (Epidermophyton floccus [4]) [mg/L],MIC [5] [mg/L],MIC (Trichophyton rubrum [6]) [mg/L],MIC mg/l Penicillium expansum (Penicillium expansum; repeat test (Table 16)) [mg/L],MIC mg/l Botrytis cinerea (Botrytis cinerea; first test (Table 15)) [mg/L],MIC mg/l Botrytis cinerea (Botrytis cinerea; repeat test (Table 16)) [mg/L],MIC mg/l Penicillium expansum (Penicillium expansum; first test (Table 15)) [mg/L],MIC mg/l Alternaria alternata (Alternaria alternata; first test (Table 15)) [mg/L],further results
"Nc1nc(=O)[nH]cc1F [5-Fluorocytosine, 5-fluorocytosine]",> 50,> 50,> 50,> 50,> 50,> 50,–,–,–,–,–,–
C[C@@H]1[C@H](O)[C@@H](C)/C=C/C=C/C=C/C=C/C=C/C=C/C=C/[C@H](O[C@@H]2O[C@H](C)[C@@H](O)[C@H](N)[C@@H]2O)C[C@@H]2O[C@](O)(C[C@@H](O)C[C@@H](O)[C@H](O)CC[C@@H](O)C[C@@H](O)CC(=O)O[C@H]1C)C[C@H](O)[C@H]2C(=O)O [Amphotericin B],–,–,–,–,–,–,–,–,–,–,–,MIC (mg/L) Epidermophyton floccus (Epidermophyton floccus [1]): 50.0 mg/L; MIC (mg/L) Trichophyton mentagrophytes [2]: >50 mg/L; MIC (mg/L) Trichophyton rubrum (Trichophyton rubrum [3]): >50 mg/L; MIC (mg/L) Epidermophyton floccus (Epidermophyton floccus [4]): >50 mg/L; MIC (mg/L) Trichophyton mentagrophytes [5]: >50 mg/L; MIC (mg/L) Trichophyton rubrum (Trichophyton rubrum [6]): >50 mg/L
OC(Cn1cncn1)(Cn1cncn1)c1ccc(F)cc1F [Fluconazole],10,> 50,50,> 50,> 50,> 50,–,–,–,–,–,–
CCC(C)n1ncn(-c2ccc(N3CCN(c4ccc(OCC5COC(Cn6cncn6)(c6ccc(Cl)cc6Cl)O5)cc4)CC3)cc2)c1=O (stereo not shown) [Itraconazole],> 50,> 50,> 50,> 50,> 50,> 50,–,–,–,–,–,–
Fc1ccc2c(c1)COB2OCCOB1OCc2cc(F)ccc21 [Sample 1],–,–,–,–,–,–,8.9,–,–,–,–,"MIC (Botrytis cinerea; first test (Table 15)): < 0.6 mg/L; MIC (Botrytis cinerea; repeat test (Table 16)): 0.6 mg/L; MIC (Penicillium expansum; Penicillium expansum, first test (Table 15), read-out: MIC mg/l Penicillium expansum): 8.9 mg/L; MIC (Alternaria alternata; first test (Table 15)): 22 mg/L; MIC (Alternaria alternata; repeat test (Table 16)): > 2.2 mg/L; MIC (Monilinia fructicola; Monilinia fructicola, repeat test (Table 16), read-out: MIC mg/l Monilinia fructicola): 2.2 mg/L"
c1ccc2c(c1)COB2OCCOB1OCc2ccccc21 [Sample 2],–,–,–,–,–,–,8.9,<0.6,2.2,8.9,8.9,MIC mg/l Monilinia fructicola (Monilinia fructicola; first test (Table 15)): 35.7 mg/L; MIC mg/l Glomerella cingulata (Glomerella cingulata): 142.9 mg/L
CC(C)(OB1OCc2cc(F)ccc21)C(C)(C)OB1OCc2cc(F)ccc21 [Sample 3],–,–,–,–,–,–,8.9,<0.6,1.1,4.5,2.2,MIC mg/l Alternaria alternata (Alternaria alternata; repeat test (Table 16)): >2.2 mg/L; MIC mg/l Monilinia fructicola (Monilinia fructicola; repeat test (Table 16)): 1.1 mg/L
CC(COB1OCc2cc(F)ccc21)OB1OCc2cc(F)ccc21 (stereo not shown) [Sample 4],–,–,–,–,–,–,8.9,<0.6,0.6,8.9,1.1,MIC mg/l Alternaria alternata (Alternaria alternata; repeat test (Table 16)): >2.2 mg/L; MIC mg/l Monilinia fructicola (Monilinia fructicola; repeat test (Table 16)): 1.1 mg/L
Caspofungin diacetate,–,–,–,–,–,–,–,–,–,–,–,MIC (mg/L) Epidermophyton floccus (Epidermophyton floccus [1]): 2.0 mg/L; MIC (mg/L) Trichophyton mentagrophytes [2]: 50.0 mg/L; MIC (mg/L) Trichophyton rubrum (Trichophyton rubrum [3]): 10.0 mg/L; MIC (mg/L) Epidermophyton floccus (Epidermophyton floccus [4]): >50 mg/L; MIC (mg/L) Trichophyton mentagrophytes [5]: >50 mg/L; MIC (mg/L) Trichophyton rubrum (Trichophyton rubrum [6]): >50 mg/L
